Measured values reported in patent publication US20120302629A1, “BIOMARKERS FOR GOSSYPOL CHEMOTHERAPY AND METHODS OF TREATING DISEASE” (THE REGENTS OF THE UNIVERSITY OF MICHIGAN, priority 2009, published 2012).
pIC50: −log10 of the molar value. One block for each compound: values may come before it.

Columns and labels:
[1] = tested on: Puma mRNA in 2LMP cells; assay: Taqman real-time PCR; type: cell-based, human; conditions: 10 μm
Description: (§1) Real-Time PCR: Total RNA was extracted by RNA miniprep kit (Sigma) from cells treated with or without of (−)-gossypol. cDNA was synthesized from 2 μg of RNA using cDNA reverse transcription kits (Applied Biosystems). Next, Taqman gene expression assays were performed using Noxa (Hs00560402_ml), Puma (Hs00248075_ml), Mcl-1 (Hs00172036_ml) gene specific primers/probe sets for real-time PCR in a ABI7900HT PCR machine. GAPDH (Hs99999905_ml) was used for normalization. Relative quantitation of mRNA was calculated by comparative cycle threshold (Ct) method.

[2] = tested on: long form of Mcl-1 mRNA in 2LMP cells; assay: Taqman real-time PCR; type: cell-based, human; conditions: 10 μm, 5-10 h time-points
Description: as §1

[3] = tested on: Noxa mRNA in 2LMP cells; assay: Taqman real-time PCR; type: cell-based, human; conditions: 10 μm
Description: as §1

[4] = target: Bcl-2 (Homo sapiens, UniProt P10415); conditions: Wang et al., J. Med. Chem. 49:6139 (2006); cited from earlier work
Sequence of Bcl-2 (P10415 whole entry): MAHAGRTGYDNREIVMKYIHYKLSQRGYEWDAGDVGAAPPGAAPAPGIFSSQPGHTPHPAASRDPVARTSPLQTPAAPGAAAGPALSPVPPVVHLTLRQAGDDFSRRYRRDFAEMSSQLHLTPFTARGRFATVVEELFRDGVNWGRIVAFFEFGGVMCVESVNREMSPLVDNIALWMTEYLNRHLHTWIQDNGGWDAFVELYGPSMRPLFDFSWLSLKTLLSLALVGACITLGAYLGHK

[5] = target: Mcl-1 (Homo sapiens, UniProt Q07820); conditions: Wang et al., J. Med. Chem. 49:6139 (2006); cited from earlier work
Sequence of Mcl-1 (Q07820 whole entry): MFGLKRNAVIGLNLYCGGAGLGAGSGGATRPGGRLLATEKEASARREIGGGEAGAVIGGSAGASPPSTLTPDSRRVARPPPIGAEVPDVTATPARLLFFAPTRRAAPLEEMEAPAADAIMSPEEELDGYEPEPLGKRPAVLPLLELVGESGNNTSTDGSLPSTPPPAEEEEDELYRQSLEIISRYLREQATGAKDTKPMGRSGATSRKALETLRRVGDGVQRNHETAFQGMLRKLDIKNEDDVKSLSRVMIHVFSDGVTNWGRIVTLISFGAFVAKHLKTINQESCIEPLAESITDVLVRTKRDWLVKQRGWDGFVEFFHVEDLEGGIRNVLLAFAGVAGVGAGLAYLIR

[6] = tested on: 2LMP cells; assay: WST cell growth assay; type: cell-based, human; conditions: 4 days
Description: (§2) Cell Growth, Cell Death, and Apoptosis: Cell growth inhibition by (−)-gossypol was determined in a water-soluble tetrazolium (WST)-based assay, as described previously (Shangary et al., Proc. Natl. Acad. Sci. USA 105:3933 (2008)). Cell viability was determined by trypan blue due exclusion as described (Shangary et al., Proc. Natl. Acad. Sci. USA 105:3933 (2008)). Experiments were done in triplicate. To examine apoptosis, cells were stained with Annexin V and PI and analyzed by flow cytometery using an Annexin V-FITC staining kit (Roche Applied Science, Indianapolis, Ind.) according to manufacturer's instructions. Briefly, cells were treated and collected by centrifugation, washed with PBS once and then stained with annexinV-FITC and PI for 15 min at room temperature in the dark. Stained cells were analyzed in a FACS caliber flow cytometer. AnnexinV positive cells are considered as apoptotic cells.

[7] = tested on: MDA-MB-436 cells; assay: WST cell growth assay; type: cell-based, human; conditions: (−)-gossypol 0.5 and 1 μM, 4 days
Description: as §2

[8] = tested on: PC-3 cells; assay: WST cell growth assay; type: cell-based, human; conditions: 4 days
Description: as §2

[9] = tested on: DU145 cells; assay: Cell death (trypan blue) after siRNA knock-down; type: cell-based, human
Description: as §2
(§3) RNA interference: Gene specific double-stranded RNA oligonucleotide targeting Noxa, Puma, c-Myc, HIF1-α, E2F1#2, Bax, Bak, were purchased from Dharmacon RNAi technologies as Sigenome on-targetplus SMARTpool duplex (Lafayette, Colo.). SiRNA of E2F#1 was purchased from Santa Cruz. As a negative control, siRNA against GFP target sequence 5′-[…]-3′ was employed (Qiagen, Valencia, Calif.). […]

[10] = target: Bcl-xL (Homo sapiens, UniProt Q07817); conditions: Wang et al., J. Med. Chem. 49:6139 (2006); cited from earlier work
Sequence of Bcl-xL (Q07817 whole entry): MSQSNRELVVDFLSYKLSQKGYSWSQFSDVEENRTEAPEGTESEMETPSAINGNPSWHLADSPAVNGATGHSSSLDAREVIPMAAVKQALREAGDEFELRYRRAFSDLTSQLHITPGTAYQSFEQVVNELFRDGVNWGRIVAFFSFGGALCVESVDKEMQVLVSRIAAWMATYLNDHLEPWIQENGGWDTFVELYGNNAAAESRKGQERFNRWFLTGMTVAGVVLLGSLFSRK

[11] = tested on: HMEC cells; assay: Cell death (trypan blue) and western blot in normal cells; type: cell-based, human
Description: as §2
(§4) Western blot assay: Proteins were harvested in RIPA buffer, then electrophoresed on 4-20% gradient SDS-PAGE gels (Invitrogen, Grand Island, N.Y.) and transferred to PVDF membranes. The membranes were blocked in 5% milk and then incubated with specific primary antibody, followed by secondary antibody. The signals were visualized with the chemiluminescent HRP antibody detection reagent (Deville Scientific, Metuchen, N.J.).

[12] = tested on: FF (fibroblast) cells; assay: as above; type: cell-based, human
Description: as §2, §4

[13] = tested on: MCF-12F cells; assay: as above; type: cell-based, human
Description: as §2, §4

[14] = tested on: 2LMP cells; assay: Cell death by trypan blue dye exclusion; type: cell-based, human; conditions: for cell death: 48 h
Description: as §2

[15] = tested on: PC-3 cells; assay: Cell death by trypan blue dye exclusion; type: cell-based, human
Description: as §2

[16] = tested on: 5 breast (MDA-MB-231, MDA-MB-436, MDA-MB-468, BT-549 and MCF-7) and 3 prostate (22Rv1, DU145 and LNCaP) cancer cell lines; assay: Western blot in 8 additional cancer cell lines; type: cell-based, human; conditions: treated for 24 h, all 8 cancer cell lines
Description: as §4

[17] = tested on: RKO colon cancer cells; assay: Cell death after c-Myc knock-down; type: cell-based; conditions: p53 wild-type, c-Myc siRNA
Description: as §2, §3

[18] = tested on: caspase-9 and -3/-7 in 2LMP cells; assay: Fluorometric caspase activity assays; type: cell-based, human; conditions: 5 μM
Description: Fluorometric caspase activity assays: Cells were harvested in cell lysis buffer provided by Biovision research products (Mountain View, Calif.). 20 μg of protein was evaluated for caspase activity by incubating with fluorogenic caspase-3 or -9 substrate (EMD Biosciences) in reaction buffer (Biovision). Detection of cleavage of substrate Ac-DEVD-AFC (preferentially cleaved by caspase-3) and Ac-LEHD-AFC (preferentially cleaved by caspase-9) were measured at a λexc=400 nm and λem=505 nm using a Telcan Ultra plate reader (Männedorf, Switzerland). Experiments were performed in triplicate.

[19] = tested on: Bcl-2 family proteins in PC-3 cells; assay: Western blot of whole cell lysates; type: cell-based, human; conditions: 10 μM
Description: as §4

[20] = tested on: Bcl-2 family proteins in 2LMP cells; assay: Western blot of whole cell lysates; type: cell-based, human
Description: as §4

[21] = tested on: 2LMP cells; assay: Apoptosis (Annexin V/PI flow cytometry) after siRNA knock-down; type: cell-based, human
Description: as §2
(§5) RNA interference: Gene specific double-stranded RNA oligonucleotide targeting Noxa, Puma, c-Myc, HIF1-α, E2F1#2, Bax, Bak, were purchased from Dharmacon RNAi technologies as Sigenome on-targetplus SMARTpool duplex (Lafayette, Colo.). SiRNA of E2F#1 was purchased from Santa Cruz. As a negative control, siRNA against GFP target sequence 5′-[…]-3′ was employed (Qiagen, Valencia, Calif.). Transfections were performed using Lipofectamine RNAiMAX, according to manufacturer's instructions (Invitrogen, Carlsbad, Calif.). (−)-Gossypol was added 24 h after transfection and cells were harvested after 18 h treatment of (−)-gossypol. Three independent knock down experiments were performed for each gene.

[22] = tested on: PC-3 cells; assay: as above; type: cell-based, human
Description: as §2, §5

[23] = tested on: wild-type MEF cells; assay: Apoptosis (Annexin V/PI flow cytometry) in MEF cells; type: cell-based; conditions: 24 h
Description: as §2

[24] = tested on: MEF Bax/Bak KO cells; assay: as above; type: cell-based; conditions: for cells to undergo apoptosis: 24 h
Description: as §2

SMILES: Cc1cc2c(C(C)C)c(O)c(O)c(C=O)c2c(O)c1-c1c(C)cc2c(C(C)C)c(O)c(O)c(C=O)c2c1O [(−)-gossypol]
Puma mRNA increased ([1]; 2.5 h time-point): 1.4 fold
Puma mRNA increased ([1]; 5 h time-point): 5.4 fold
Puma mRNA increased ([1]; 7.5 h time-point): 5 fold
Puma mRNA increased ([1]; 10 h time-point): 4.3 fold
increase of the long form of Mcl-1 mRNA [2]: less than 3 fold
mRNA levels of Noxa increased ([3]; 2.5 h time-point): 2.3 fold
mRNA levels of Noxa increased ([3]; 5 h time-point): 9 fold
mRNA levels of Noxa increased ([3]; 7.5 h time-point): 24 fold
mRNA levels of Noxa increased ([3]; 10 h time-point): 37 fold
binding affinity [4]: low to sub-micromolar
binding affinity [5]: low to sub-micromolar
sensitization to ABT-737 ([6]; (−)-gossypol 0.5 and 1 μM): effectively sensitize
sensitization to ABT-737 [7]: effectively sensitize
sensitization to ABT-737 ([8]; (−)-gossypol 0.5 and 1 μM): effectively sensitize
effect of double knockdown of Bax/Bak on apoptosis induction ([9]; 18 h, Bax and Bak siRNA): modestly reduced
cell death induction upon c-Myc knock-down ([9]; p53-mutated, c-Myc siRNA): effective blockage
binding affinity [10]: low to sub-micromolar
Noxa induction ([11]; 24-48 h treatment at 10 μM): not induced
cell death ([11]; compared to 2LMP cells): minimal cell death
Noxa induction ([12]; 24-48 h treatment at 10 μM): not induced
cell death ([12]; compared to 2LMP cells): minimal cell death
Noxa induction ([13]; 24-48 h treatment at 10 μM): not induced
cell death ([13]; compared to 2LMP cells): minimal cell death
cells killed ([14]; 2.5 μM, 48 h treatment): 14%
cells to undergo cell death ([14]; 10 μM, 24 hour-treatment (FIG. 1)): 30-40%
cells lost their viability ([14]; 10 μM, 24 h time-point): approximately 40%
cells lost their viability ([14]; 10 μM, 36 h time-point): approximately 70%
cells lost their viability ([14]; 10 μM, 48 h time-point): ~100%
cell death at time-points earlier than 12 h ([14]; 10 μM, time course): no significant cell death
cells to undergo cell death ([15]; 10 μM, 24 hour-treatment): 30-40%
cells lost their viability ([15]; 10 μM, 24 h time-point): approximately 40%
cells lost their viability ([15]; 10 μM, 36 h time-point): approximately 70%
cells lost their viability ([15]; 10 μM, 48 h time-point): ~100%
cell death at time-points earlier than 12 h ([15]; 10 μM, time course): no significant cell death
lowest concentration with significant upregulation of Noxa [16]: 2.5 µM
cell death induction upon c-Myc knock-down [17]: effective blockage
activity of caspase-9 and -3/-7 induced ([18]; 24 h treatment): 7 fold
activity of caspase-9 and -3/-7 induced ([18]; 48 h treatment): > 60 fold
earliest time of clear Noxa protein induction [19]: 4 h
earliest time of dramatic induction of the short forms of Mcl-1 [19]: 8 h
time of Puma protein upregulation [19]: 8 h
earliest time of clear Noxa protein induction ([20]; 10 μM): 4 h
earliest time of dramatic induction of the short forms of Mcl-1 ([20]; 10 μM): 8 h
time of Puma protein upregulation ([20]; 10 μM): 8 h
Bcl-xL protein level ([20]; 10 μM, 12 h time-point): significant down-regulation
lowest concentration with clear induction of Noxa and Puma ([20]; 24-h treatment (FIG. 8A)): 2.5 µM
apoptosis induction blocked by double knockdown of Bax/Bak ([21]; 10 μM, 18 h, Bax and Bak siRNA): approximately 70%
cell death induction blocked by knock-down of c-Myc ([21]; 10 μM, c-Myc siRNA): > 70%
apoptosis induction decreased by knock-down of Puma ([21]; 18 h, Puma siRNA): 30-50%
apoptosis induction reduced by knock-down of Noxa ([21]; all the concentrations tested, 18 h, Noxa siRNA): > 50%
cell death induction blocked by knock-down of c-Myc ([22]; 10 μM, c-Myc siRNA): > 70%
effect of double knockdown of Bax/Bak on apoptosis induction ([22]; 18 h, Bax and Bak siRNA): no effect
cells to undergo apoptosis ([23]; 5 μM): 29%
cells to undergo apoptosis ([23]; 10 μM): 33%
cells to undergo apoptosis ([24]; 5 μM): 11%
cells to undergo apoptosis ([24]; 10 μM): 13%
cell death reduced in the Bax/Bak double knock-out ([24]; 20 μM, versus wild-type MEF): 25%

pIC50 ([8]; Homo sapiens, PC-3, 96 h): < 5.00
SMILES: CN(C)CC[C@H](CSc1ccccc1)Nc1ccc(S(=O)(=O)NC(=O)c2ccc(N3CCN(Cc4ccccc4-c4ccc(Cl)cc4)CC3)cc2)cc1[N+](=O)[O-] [ABT-737, reference compound]
pIC50 ([6]; Homo sapiens, 96 h): < 5.00
cell death ([14]; 1 μM): no effect
cell death ([14]; 2.5 μM): no effect
cell death induction upon knock-down of Mcl-1 ([14]; Mcl-1 knock-down): sensitizes
cell death induction upon knock-down of Mcl-1 ([15]; Mcl-1 knock-down): sensitizes

SMILES: CC(C)C[C@H](NC(=O)[C@H](Cc1ccccc1)NC(=O)c1cnccn1)B(O)O [bortezomib, reference compound]
cell death upon knock-down of c-Myc ([14]; c-Myc siRNA, 24 h): blocked cell death
